The data set in a line: method code SF-AS, from DOI: 10.1007/bf00778146.

Broadly, the logP is a log measure of how a compound divides between an organic and an aqueous phase. Low values mean a more hydrophilic compound, high ones a more lipophilic compound. In turn, `CC1(C)OCC(Nc2nc(N3CC3)nc(N3CC3)n2)CO1` displayed a lipophilicity (logP) of 0.11. Then `CC(CO)(CO)Nc1nc(N2CC2)nc(N2CC2)n1`, with -0.75; and `OCC1(Nc2nc(N3CC3)nc(N3CC3)n2)COC(c2ccccc2)OC1` (stereo unspecified), with 0.62.

Regarding `OCC(CO)Nc1nc(N2CC2)nc(N2CC2)n1`, the lipophilicity (logP) is -1.54. As for `CCC(CO)(CO)Nc1nc(N2CC2)nc(N2CC2)n1`, the figure is -0.32; as for `CCC1(Nc2nc(N3CC3)nc(N3CC3)n2)COC(C)(C)OC1`, 0.85.

In turn, `CC(C)C1OCC(CO)(Nc2nc(N3CC3)nc(N3CC3)n2)CO1` (stereo unspecified) had a logP of 0.22. Then `OCC1(Nc2nc(N3CC3)nc(N3CC3)n2)COC(c2ccco2)OC1` (stereo unspecified), with 0.27. As for `OCC(CO)(CO)Nc1nc(N2CC2)nc(N2CC2)n1`, the figure is -1.76. As for `COc1ccc(C2OCC(CO)(Nc3nc(N4CC4)nc(N4CC4)n3)CO2)cc1OC` (stereo unspecified), the figure is 0.89; as for `CC1(C)OCC(CO)(Nc2nc(N3CC3)nc(N3CC3)n2)CO1`, -0.52.
